According to patent publication US20180244629A1, “Compounds And Compositions For The Treatment Of Cancer” (The Broad Institute, Inc., priority 2013, published 2018):
Like-named read-outs stand apart in the source and are kept apart here.

Tests used:
COLO741 cells = test: COLO741 Assay (Cell Titer Glo viability); format: cell-based
Protocol: (§1) C0L0741 Assay Protocol. Day 0: C0L0741 cells (ECACC, C0L0741 93052621) are grown to 95% confluence in RPMI, 10% FBS/Pen/Strep/L-Glutamine. Day 1: Plate cells (1500 per well) in 40 μl culturing media using Corning 384-well plates (3570), incubate in standard TC conditions (5% CO2, 95% humidity, 37° C.) for 24 h. Day 2: Dilute each concentration of a half-log serial dilution of compound (1 mM-100 nM) 1:200 in culturing media and add […] (50 μl total volume) of that dilution to designated wells (8 replicates per concentration). The final dilution will be 1000×([…]). Day 4: Remove plate from incubator to cool for 20 minutes to room temperature. Add 40 μl of a 25% Promega Cell Titer Glo solution (diluted 1:3 with room temperature PBS) with Thermo combi or multichannel and incubate for 10 minutes. Read on Perkin-Elmer EnVision with US LUM settings for 0.1 second per well.
(§2) Compounds as shown were tested against various cells lines in vitro according to the methods described herein. Cells are plated in 384-well format in a total volume of 40 μl. Indicated compound concentrations were added 24 hrs after plating the cells. After 48 hrs cell viability was determined using Cell Titer Glo® Luminescent Cell Viability Assay.

H2122 cells = test: H2122 Assay (Cell Titer Glo viability); format: cell-based
Protocol: Selective toxicity in cell line panel. H2122 Assay Protocol Day 0: H2122 cells (ATCC, H2122 CCL-5985) are grown to 95% confluence in RPMI, 10% FBS/Pen/Strep/L-Glutamine. Day 1: Plate cells (750 per well) in 40 μl culturing media using Corning 384-well plates (3570), incubate in standard TC conditions (5% CO2, 95% humidity, 37 degrees C.) for 24 h. Day 2: Dilute each concentration of a half-log serial dilution of compound (1 mM-100 nM) 1:200 in culturing media and add 10 μl (50 μl total volume) of that dilution to designated wells (8 replicates per concentration). The final dilution will be 1000×([…]). Day 4: Remove plate from incubator to cool for 20 minutes to room temperature. Add 40 μl of a 25% Promega Cell Titer Glo solution (diluted 1:3 with room temperature PBS) with Thermo combi or multichannel and incubate for 10 minutes. Read on Perkin-Elmer EnVision with US LUM settings for 0.1 second per well.
as §2

HeLa cells = test: HeLa Cytotoxicity Assay (Cell Titer Glo viability); format: cell-based
Protocol: HeLa Cytotoxicity Assay Protocol: Day 0: HeLa cells (ATCC, HeLa CCL-2) are grown to 95% confluence in DMEM, 10% FBS/Pen/Strep/L-Glutamine. Day 1: Plate cells (1000 per well) in 40 μl culturing media using Corning 384-well plates (3570), incubate in standard TC conditions (5% CO2, 95% humidity, 37 degrees C.) for 24 hours. Day 2: Dilute each concentration of a half-log serial dilution of compound (1 mM-100 nM) 1:200 in culturing media and add 10 μl (50 μl total volume) of that dilution to designated wells (8 replicates per concentration). The final dilution will be 1000×(1 μM-100 pM). Day 4: Remove plate from incubator to cool for 20 minutes to room temperature. Add 40 μl of a 25% Promega Cell Titer Glo solution (diluted 1:3 with room temperature PBS) with Thermo combi or multichannel and incubate for 10 minutes. Read on Perkin-Elmer EnVision with US LUM settings for 0.1 second per well.
as §2
(§3) Known PDE3 inhibitors as shown below were tested against various cells lines in vitro according to the methods described herein. Cells are plated in 384-well format in a total volume of 40 μl. Indicated compound concentrations were added 24 hrs after plating the cells. After 48 hrs cell viability was determined using Cell Titer Glo® Luminescent Cell Viability Assay.

A549 cells = test: A549 Cytotoxicity Assay (Cell Titer Glo viability); format: cell-based
Protocol: as §1, with “A549 Cytotoxicity Assay” for “C0L0741 Assay”, “0: A549” for “0: C0L0741”, “cells (ATCC, A549 CCL-185)” for “cells (ECACC, C0L0741 93052621)”, “cells (1000” for “cells (1500”, “10 min.” for “10 minutes.”
A549 Assay Protocol. Day 0: A549 cells (ATCC) are grown in a Triple flask (NUNC) to ˜95% confluence (TrypLE Phenol Red free) and resuspended for dispensing at 25,000 cells/mL of DMEM, 10% FBS/Pen/Strep/L-Glutamine (using the TAP Compact SelecT automated cell culture system). Day 1: Plate cells at 1000 per well in 40 uL media (DMEM/10% FBS/Pen/Strep/L-Glutamine) using Corning 8867BC 384 well plates; incubate in standard TC conditions (5% CO2; 95% humidity, 37° C.) for 24 hours (Compact SelecT). Day 2: Add 100 nL compound per well at dose into 40 uL assay volume using a pin tool (CyBi Well). Pin 100 nL cytotoxic compounds, mitoxantrone (CID 4212) to positive control wells to a final concentration of 10 μM (100 nL 4 mM DMSO stock). Incubate for […] at 37° C. in Liconic incubator, 95% humidity 5% CO2. Day 4: Remove plate from incubator, cool for 15 minutes to room temperature; add 20 μL 50% Promega CellTiterGlo (diluted 1:1 with PBS, pH 7.4) with Thermo Combi. Incubate at room temperature for 5 minutes. Read plates on Perkin-Elmer EnVision with standard luminescence settings for 0.1 sec per well.
as §2, §3

PDE3 = settings: reference value; read-out: PDE3 activity (ref); cited from earlier work
HEL = HEL cell line viability (Cell Titer Glo); format: cell-based
Protocol: as §2

[1] = Homo sapiens, COLO-741, Example 18, Mean ± SD (n = 3), read-out: Potency (EC50 nM) COLO741
[2] = Homo sapiens, NCI-H2122, Example 18, Mean ± SD (n = 3), read-out: Potency (EC50 nM) H2122
[3] = Homo sapiens, HeLa, Example 18, Mean ± SD (n = 3), read-out: Potency (EC50 nM) HeLa
[4] = Homo sapiens, A549, known PDE3 inhibitors, Mean (n = 3), read-out: Potency (EC50 nM) A549
[5] = Homo sapiens, HeLa, known PDE3 inhibitors, Mean (n = 3), read-out: Potency (EC50 nM) HeLa
[6] = 48 hrs, Cell Titer Glo, read-out: EC50 COLO741
[7] = 48 hrs, Cell Titer Glo, read-out: EC50 A549
[8] = Homo sapiens, NCI-H2122, 48 h, 48 hrs, Cell Titer Glo, read-out: EC50 H2122
[9] = Homo sapiens, HeLa, 48 h, Cell Titer Glo, read-out: EC50 HeLa
[10] = Homo sapiens, COLO-741, 48 h, 48 hrs, Cell Titer Glo, read-out: EC50 COLO741
[11] = Homo sapiens, A549, 48 hrs, Cell Titer Glo, read-out: EC50 A549
[12] = 48 hrs, Cell Titer Glo, read-out: EC50 H2122

Compound | EC50 (COLO741 cells; [1]) [nM] | EC50 (H2122 cells; [2]) [nM] | EC50 (HeLa cells; [3]) [nM] | EC50 (A549 cells; [4]) [nM] | EC50 (HeLa cells; [5]) [nM] | IC50 (PDE3) [nM] | further results
O=C1CN2Cc3c(ccc(Cl)c3Cl)NC2=N1 | 12.2 ± 0.9 | 17.4 ± 3.5 | 6.8 ± 0.9 |  |  |  | 
O=C1CN2Cc3c(ccc(Cl)c3Cl)N=C2N1 [Anagrelide, reference compound] |  |  |  | > 10000 | 8.2 | 36 | 
CN(C(=O)CCCOc1ccc2[nH]c(=O)ccc2c1)C1CCCCC1 [Cllostamide, reference compound] |  |  |  | > 10000 | > 10000 | 27 | 
O=C1CCC(c2ccc(-n3ccnc3)cc2)=NN1 [Imazodan, reference compound] |  |  |  | > 10000 | 720 | 1300 | 
C[C@@H]1CC(=O)NN=C1c1ccc(NN=C(C#N)C#N)cc1 [Levosimendan, reference compound] |  |  |  | > 10000 | > 10000 | 2.4 | 
Cc1[nH]c(=O)c(C#N)cc1-c1ccncc1 [Millrinone, reference compound] |  |  |  | > 10000 | > 10000 | 56 | 
CC(=O)Nc1ccc(C2=NNC(=O)C[C@H]2C)cc1 [OR-1896, reference compound] |  |  |  |  | > 10000 | 94 | EC50 (A549 cells; known PDE3 inhibitors, Mean (n = 3), read-out: Potency (EC50 nM) A549): > 10000 nM
CN/C(=N\c1ccc(C2=NNC(=O)CC2C)cc1)NC#N (stereo not drawn) [Siguazodan, reference compound] |  |  |  | > 10000 | > 10000 | 117 | 
COc1cc2c(cc1OC)-c1c/c(=N\c3c(C)cc(C)cc3C)n(C)c(=O)n1CC2 [Trequinsin, reference compound] |  |  |  | > 10000 | > 10000 | 0.25 | 
COc1cc(-c2ccc(=O)[nH]n2)ccc1OC(F)F [Zardaverine, reference compound] |  |  |  | > 10000 | 56 | 2500 | 
C[C@@H]1CC(=O)NN=C1c1ccc(N2CCOCC2)cc1 [drawing 138] |  |  |  |  |  |  | EC50 (COLO741 cells; [6]): 14.5 to 18.9 nM; EC50 (A549 cells; [7]): > 10000 nM; EC50 (H2122 cells; [8]): 11.8 nM; EC50 (HeLa cells; [9]): 10.3 to 12.1 nM; EC50 (HEL; 48 hrs): 25.7 to 58.4 nM
CCN1N=C(c2ccc(N(CC)CC)cc2)[C@H](C)CC1=O [drawing 140] |  |  |  |  |  |  | EC50 (COLO741 cells; [10]): > 1000 nM; EC50 (A549 cells; [11]): > 10000 nM; EC50 (H2122 cells; [8]): > 1000 nM; EC50 (HeLa cells; [9]): > 10000 nM
CCN(CC)c1ccc(C2=NNC(=O)C[C@H]2C)cc1[N+](=O)[O-] [drawing 141] |  |  |  |  |  |  | EC50 (COLO741 cells; [10]): 3.97 nM; EC50 (A549 cells; [11]): > 10000 nM; EC50 (H2122 cells; [12]): 3.62 nM; EC50 (HeLa cells; [9]): 2.63 nM; EC50 (HEL; Homo sapiens, HEL, 48 h): 13.5 nM
CCNc1ccc(C2=NNC(=O)C[C@H]2C)cc1[N+](=O)[O-] [drawing 142] |  |  |  |  |  |  | EC50 (COLO741 cells; [10]): 0.76 nM; EC50 (A549 cells; [11]): > 10000 nM; EC50 (H2122 cells; [8]): 0.8 nM; EC50 (HeLa cells; [9]): 0.461 nM; EC50 (HEL; Homo sapiens, HEL, 48 h): 3.98 nM
CCN(CC)c1ccc(C2=NNC(=O)C[C@H]2C)cc1[N+](=O)[O-] [drawing 145] |  |  |  |  |  |  | EC50 (COLO741 cells; [6]): 3.6 to 4.4 nM; EC50 (A549 cells; [7]): > 10000 nM; EC50 (H2122 cells; [12]): 7.4 nM; EC50 (HeLa cells; 48 hrs, Cell Titer Glo, read-out: EC50 HeLa): 4.05 nM; EC50 (HEL; 48 hrs): 11.3 to 16.2 nM
C[C@@H]1CC(=O)NN=C1c1ccc(N2CCOCC2)cc1 [drawing 151] |  |  |  |  |  |  | EC50 (COLO741 cells; [10]): 16.5 nM; EC50 (A549 cells; [11]): > 10000 nM; EC50 (HEL; Homo sapiens, HEL, 48 h): 38.7 nM
C[C@@H]1CC(=O)NN=C1c1ccc(C2CCCCC2)cc1 [drawing 216] | 11.4 ± 0.3 | 29.6 ± 8.7 | 7.7 ± 1.3 |  |  |  | 
C[C@@H]1CC(=O)NN=C1c1ccc(N2CCOCC2)c(F)c1 [drawing 217] | 3.1 ± 0.6 | 3.2 ± 1.1 | 1.6 ± 0.2 |  |  |  | 
C[C@@H]1CC(=O)NN=C1c1ccc(N2CCOCC2)cc1 [drawing 218] | 20.2 ± 4.8 | 31.4 ± 10.8 | 13.1 ± 1.9 |  |  |  | 
C[C@@H]1CC(=O)NN=C1c1ccc(-c2cncnc2)cc1 [drawing 219] | 19.8 ± 1.8 | 37.8 ± 12.3 | 12.7 ± 2.2 |  |  |  | 
C[C@@H]1CC(=O)NN=C1c1ccc(F)c(F)c1 [drawing 220] | 33.2 ± 14.1 | 47.7 ± 14.1 | 22.3 ± 4.5 |  |  |  | 
CC(=O)Nc1ccc(C2=NNC(=O)C[C@H]2C)cc1[N+](=O)[O-] [drawing 221] | 7.8 ± 0.3 | 12.3 ± 3.4 | 4.9 ± 1.1 |  |  |  | 
